Data on 19 molecules can be found in PubChem BioAssay AID248 (DTP/NCI, 2004).

Values joined by “and” are separate entries in the source; they are usually repeats but may differ in a detail not shown here. Equal entries are not always repeated. Toxic doses and inconclusive results are not listed.

This assay deals with L1210 leukemia ip in BDF1 mice, survival T/C. Nature of the assay: NCI In Vivo Anticancer Drug Screen. Data for tumor model L1210 Leukemia (intraperitoneal) in B6D2F1 (BDF1) mice. Conditions: endpoint: mean survival time, higher = longer survival. An outline of the steps:
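Transplanted-tumor mice were given test agent; controls received vehicle only. Survival readings from the two groups were divided (treated over control).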

Where [1] appears, read: dose: 100.0 mg/kg/injection, schedule: Q01DX001 (ip), vehicle: saline.
The mark [2] stands for this setting: dose: 200.0 mg/kg/injection, schedule: Q01DX001 (ip), vehicle: saline.
[3] abbreviates: dose: 400.0 mg/kg/injection, schedule: Q01DX001 (ip), vehicle: saline.
The mark [4] stands for this setting: dose: 100.0 mg/kg/injection, schedule: Q01DX009 (ip), vehicle: saline.
[5] abbreviates: dose: 100.0 mg/kg/injection, schedule: Q04DX003 (ip), vehicle: saline.
The mark [6] stands for this setting: dose: 200.0 mg/kg/injection, schedule: Q04DX003 (ip), vehicle: saline.
Where [7] appears, read: dose: 400.0 mg/kg/injection, schedule: Q04DX003 (ip), vehicle: saline.
Where [8] appears, read: dose: 100.0 mg/kg/injection, schedule: Q01DX009 (ip), vehicle: saline with Tween-80.
[9] abbreviates: dose: 200.0 mg/kg/injection, schedule: Q01DX009 (ip), vehicle: saline with Tween-80.
Setting [10] is: dose: 400.0 mg/kg/injection, schedule: Q01DX009 (ip), vehicle: saline with Tween-80.

On to `CC(C)C(C)(C)NC(N)=O`, for which the T/C is, setting by setting: under setting [1], 102 % of control; under setting [2], 104 % of control; under setting [3], 104 % of control.

Take `O=C1C(O)CCN1Cc1ccccc1` (stereo not given): the T/C is 108 % of control (dose: 50.0 mg/kg/injection, schedule: Q01DX001 (ip), vehicle: saline); 104 % of control under setting [1]; 104 % of control under setting [2]; 102 % of control under setting [3].

Take `Nc1nc(N)c2nc(CNc3ccccc3)cnc2n1`: the T/C was 96 % of control (dose: 20.0 mg/kg/injection, schedule: Q01DX009 (ip), vehicle: Klucel (hydroxypropylcellulose) (HPC)); 105 % of control (dose: 40.0 mg/kg/injection, schedule: Q01DX009 (ip), vehicle: Klucel (hydroxypropylcellulose) (HPC)); 96 % of control (dose: 80.0 mg/kg/injection, schedule: Q01DX009 (ip), vehicle: Klucel (hydroxypropylcellulose) (HPC)).

`CC(C)CCOC(CN)C(Cl)(Cl)Cl` (stereo not given): the T/C reads like this: (dose: 25.0 mg/kg/injection, schedule: Q01DX009 (ip), vehicle: saline) 96 % of control and 107 % of control; (dose: 25.0 mg/kg/injection, schedule: Q04DX002 (ip), vehicle: saline) 98 % of control and 106 % of control; (dose: 25.0 mg/kg/injection, schedule: Q04DX003 (ip), vehicle: saline) 118 % of control; (dose: 50.0 mg/kg/injection, schedule: Q01DX009 (ip), vehicle: saline) 96 % of control and 100 % of control; (dose: 50.0 mg/kg/injection, schedule: Q04DX002 (ip), vehicle: saline) 95 % of control; (dose: 50.0 mg/kg/injection, schedule: Q04DX003 (ip), vehicle: saline) 102 % of control. Also, the T/C is, setting by setting: under setting [4], 98 % of control and 100 % of control; under setting [5], 96 % of control and 109 % of control.

Take `NC(N)=NN=C(CO)CO`: the T/C is, setting by setting: (dose: 1.0 mg/kg/injection, schedule: Q01DX Z (ip), vehicle: methylcellulose (MC)) 103 % of control; (dose: 2.0 mg/kg/injection, schedule: Q01DX Z (ip), vehicle: methylcellulose (MC)) 111 % of control; (dose: 4.0 mg/kg/injection, schedule: Q01DX Z (ip), vehicle: methylcellulose (MC)) 109 % of control; (dose: 8.0 mg/kg/injection, schedule: Q01DX Z (ip), vehicle: methylcellulose (MC)) 117 % of control; (dose: 15.0 mg/kg/injection, schedule: Q01DX Z (oral), vehicle: methylcellulose (MC)) 89 % of control; (dose: 30.0 mg/kg/injection, schedule: Q01DX Z (ip), vehicle: methylcellulose (MC)) 172 % of control. The T/C is, setting by setting: (dose: 30.0 mg/kg/injection, schedule: Q01DX Z (ip), vehicle: saline) 110 % of control; (dose: 30.0 mg/kg/injection, schedule: Q01DX Z (oral), vehicle: methylcellulose (MC)) 102 % of control; (dose: 60.0 mg/kg/injection, schedule: Q01DX Z (ip), vehicle: saline) 108 % of control; (dose: 60.0 mg/kg/injection, schedule: Q01DX Z (oral), vehicle: methylcellulose (MC)) 93 % of control; (dose: 120.0 mg/kg/injection, schedule: Q01DX Z (ip), vehicle: saline) 103 % of control; (dose: 120.0 mg/kg/injection, schedule: Q01DX Z (oral), vehicle: methylcellulose (MC)) 100 % of control. In addition, the T/C is, setting by setting: (dose: 120.0 mg/kg/injection, schedule: Q01DX Z (oral), vehicle: saline) 100 % of control; (dose: 240.0 mg/kg/injection, schedule: Q01DX Z (oral), vehicle: saline) 100 % of control; (dose: 480.0 mg/kg/injection, schedule: Q01DX Z (oral), vehicle: saline) 101 % of control; (dose: 960.0 mg/kg/injection, schedule: Q01DX Z (oral), vehicle: saline) 101 % of control.

Take `NNC(=O)c1ccc(Cl)c(Cl)c1`: the T/C (dose: 100.0 mg/kg/injection, schedule: Q01DX001 (ip), vehicle: Klucel (hydroxypropylcellulose) (HPC)) was 104 % of control; the T/C (dose: 200.0 mg/kg/injection, schedule: Q01DX001 (ip), vehicle: Klucel (hydroxypropylcellulose) (HPC)) is 117 % of control; the T/C (dose: 400.0 mg/kg/injection, schedule: Q01DX001 (ip), vehicle: Klucel (hydroxypropylcellulose) (HPC)) was 112 % of control.

For the molecule `CCCCCCCCCCCCCCCC(=O)N(CCC#N)CCCCCCCCCN(CCC#N)C(=O)CCCCCCCCCCCCCCC`, the T/C is 86 % of control under setting [4]; 94 % of control under setting [5]; 87 % of control under setting [6]; 91 % of control (dose: 400.0 mg/kg/injection, schedule: Q01DX009 (ip), vehicle: saline); 92 % of control under setting [7].

As to `COc1cc(N(C)C)ccc1C=O`, the T/C reads like this: (dose: 50.0 mg/kg/injection, schedule: Q01DX009 (ip), vehicle: Klucel (hydroxypropylcellulose) (HPC)) 93 % of control; (dose: 100.0 mg/kg/injection, schedule: Q01DX009 (ip), vehicle: Klucel (hydroxypropylcellulose) (HPC)) 101 % of control; (dose: 100.0 mg/kg/injection, schedule: Q04DX003 (ip), vehicle: Klucel (hydroxypropylcellulose) (HPC)) 100 % of control; (dose: 200.0 mg/kg/injection, schedule: Q01DX009 (ip), vehicle: Klucel (hydroxypropylcellulose) (HPC)) 105 % of control; (dose: 200.0 mg/kg/injection, schedule: Q04DX003 (ip), vehicle: Klucel (hydroxypropylcellulose) (HPC)) 101 % of control; (dose: 400.0 mg/kg/injection, schedule: Q01DX009 (ip), vehicle: Klucel (hydroxypropylcellulose) (HPC)) 105 % of control. In addition, the T/C (dose: 400.0 mg/kg/injection, schedule: Q04DX003 (ip), vehicle: Klucel (hydroxypropylcellulose) (HPC)) was 97 % of control.

For `CC(=O)OC1CC2C=CC1C2` (stereo not given), the T/C under setting [8] was 93 % of control, the T/C under setting [9] is 91 % of control and the T/C under setting [10] was 86 % of control.

For the molecule `S=P(c1ccccc1)(c1ccccc1)c1cccc2ccccc12`, the T/C runs as follows: under setting [1], 100 % of control; under setting [2], 94 % of control; under setting [3], 94 % of control.

Regarding `Brc1n[nH]c(Br)n1`, the T/C is, setting by setting: under setting [8], 93 % of control; under setting [9], 93 % of control; under setting [10], 91 % of control.

In the case of `O=C1C(=O)c2cccc([N+](=O)[O-])c2-c2c1cccc2[N+](=O)[O-]`, the T/C runs as follows: under setting [1], 102 % of control; under setting [2], 106 % of control; under setting [3], 102 % of control.

Consider `ClCCN(CCCl)c1ccc(-c2csc(Cc3ccccc3)n2)cc1`, for which the T/C is, setting by setting: (dose: 100.0 mg/kg/injection, schedule: Q01DX001 (ip), vehicle: carboxymethylcellulose (CMC)) 93 % of control; (dose: 200.0 mg/kg/injection, schedule: Q01DX001 (ip), vehicle: carboxymethylcellulose (CMC)) 92 % of control; (dose: 400.0 mg/kg/injection, schedule: Q01DX001 (ip), vehicle: carboxymethylcellulose (CMC)) 93 % of control.

With `OCCc1ccccc1`, the T/C runs as follows: under setting [8], 96 % of control; under setting [9], 100 % of control; under setting [10], 99 % of control.

As to `Cc1cc(C(=O)C[n+]2ccccc2)c(CN2C(=O)c3ccccc3C2=O)c(=O)n1C`, the T/C (dose: 100.0 mg/kg/injection, schedule: Q01DX001 (ip), vehicle: water) is 102 % of control.

Turning to `O=[N+]([O-])C1C(O)CCCC1O` (stereo not given), the T/C runs as follows: under setting [1], 102 % of control; under setting [2], 102 % of control; under setting [3], 105 % of control.

With `C=CCCCCCCCC/C=C1\CCOC1=O`, the T/C runs as follows: (dose: 75.0 mg/kg/injection, schedule: Q01DX009 (ip), vehicle: saline with Tween-80) 105 % of control; (dose: 100.0 mg/kg/injection, schedule: Q04DX003 (ip), vehicle: saline with Tween-80) 104 % of control; (dose: 150.0 mg/kg/injection, schedule: Q01DX009 (ip), vehicle: saline with Tween-80) 93 % of control; (dose: 200.0 mg/kg/injection, schedule: Q04DX003 (ip), vehicle: saline with Tween-80) 89 % of control; (dose: 300.0 mg/kg/injection, schedule: Q01DX009 (ip), vehicle: saline with Tween-80) 99 % of control; (dose: 400.0 mg/kg/injection, schedule: Q04DX003 (ip), vehicle: saline with Tween-80) 102 % of control.

As for `CC(=O)OCC[N+](C)(C)CCCCC[N+](C)(C)CCOC(C)=O`, the T/C is, setting by setting: under setting [4], 100 % of control; under setting [5], 95 % of control; (dose: 200.0 mg/kg/injection, schedule: Q01DX009 (ip), vehicle: saline) 113 % of control; under setting [6], 102 % of control; under setting [7], 88 % of control.

On to `c1ccc2c(C3CO3)c3ccc4ccccc4c3cc2c1` (stereo not given), for which the T/C was 113 % of control (dose: 100.0 mg/kg/injection, schedule: Q04DX002 (ip), vehicle: other); 179 % of control (dose: 200.0 mg/kg/injection, schedule: Q04DX002 (ip), vehicle: other); 120 % of control (dose: 400.0 mg/kg/injection, schedule: Q04DX002 (ip), vehicle: other).
